Experimental data as given in patent publication US20240190876A1, “Tricyclic Urea Compounds As JAK2 V617F Inhibitors” (Incyte Corporation, priority 2022, published 2024).

Legend:
[1] = biological target: T1, pseudo-kinase domain (JH2) of human V617F mutant JAK2 (Homo sapiens, UniProt O60674, F794H/V617F/W659A/W777A); assay: JAK2 LanthaScreen JH2-V617F Binding Assay; conditions: 50 nM JAK2-JH2 tracer, 1 hour at 25° C., read-out: JH2 V617F Bind IC50
T1 construct: pseudo-kinase domain (JH2, amino-acids 536-812 with 3 surface mutations W659A, W777A, F794H); His (C); purchased BPS Bioscience 79498; host or cells: baculovirus expression system
Description: JAK2 JH2-V617F binding assay utilizes pseudo-kinase domain (JH2, amino-acids 536-812 with 3 surface mutations W659A, W777A, F794H) of human V617F mutant JAK2 expressed as C-terminal His-Avi-tagged, biotinylated protein in a baculovirus expression system (BPS Bioscience, Catalog #79498). The assay was conducted in black 384-well polystyrene plates in a final reaction volume of 20 μL. JAK2 JH2-V617F (0.26 nM) was incubated with compounds (100 nL serially diluted in DMSO) in the presence of 50 nM Fluorescent JAK2-JH2 Tracer (MedChem Express Catalog #HY-102055) and 0.25 nM Streptavidin-Tb cryptate (Cisbio Part #610SATLB) in assay buffer (50 mM Tris, pH=7.5, 10 mM MgCl2, 0.01% Brij-35, 0.1% BSA, 1 mM EGTA, 5% Glycerol and 5 mM DTT). Non-specific binding was accessed in the presence of 2 mM ATP. After incubation for 1 hour at 25° C., LanthaScreen signals were read on a PHERAstar FS plate reader (BMG LABTECH). Data was analyzed with IDBS XLfit and GraphPad Prism 5.0 software using a four parameter dose response curve to determine IC50 for each compound.

[2] = In Vitro Intrinsic Clearance; format: in vitro ADME; conditions: human liver microsomes, 1 μM compound, NADPH, scaled to human
Description: For in vitro metabolic stability experiments, test compounds were incubated with human liver microsomes at 37° C. The incubation mixture contained test compounds (1 μM), NADPH (2 mM), and human liver microsomes ([…]) in 100 mM phosphate buffer (pH 7.4). The mixture was pre-incubated for 2 min at 37° C. before the addition of NADPH. Reactions were commenced upon the addition of NADPH and quenched with ice-cold methanol at 0, 10, 20, and 30 min. Terminated incubation mixtures were analyzed using LC-MS/MS system. The analytical system consisted of a Shimadzu LC-30AD binary pump system and SIL-30AC autosampler (Shimadzu Scientific Instruments, Columbia, MD) coupled with a Sciex Triple Quad 6500+mass spectrometer from Applied Biosystems (Foster City, CA). […] Mobile phase A consisted of 0.1% formic acid in water, and mobile phase B consisted of 0.1% formic acid in acetonirile. The total LC-MS/MS runtime was 2.75 minutes with a flow rate of 0.75 mL/min. Peak area integrations and peak area ratio calculations were performed using Analyst software (version 1.6.3) from Applied Biosystems.
The in vitro intrinsic clearance, CLint, in vitro, was calculated from the t1/2 of test compound disappearance as CLint, in vitro=(0.693/t1/2)×(1/Cprotein), where Cprotein is the protein concentration during the incubation, and t1/2 was determined by the slope (k) of the log-linear regression analysis of the concentration versus time profiles; thus, t1/2ln2/k. The CLint, in vitro values were scaled to the in vivo values for human by using physiologically based scaling factors, hepatic microsomal protein concentrations (45 mg protein/g liver), and liver weights (21 g/kg body weight). The equation CLint=CLint, in vitro×(mg protein/g liver weight)×(g liver weight/kg body weight) was used. The in vivo hepatic clearance (CLH) was then calculated by using CLint and hepatic blood flow, Q (20 mL·min^−1kg^−1 in humans) in the well-stirred liver model disregarding all binding from CLH (Q×CLint)/(Q+CLint). The hepatic extraction ratio was calculated as CLH divided by Q.

T1 sequence (O60674 536-812 V617F/W659A/W777A/F794H): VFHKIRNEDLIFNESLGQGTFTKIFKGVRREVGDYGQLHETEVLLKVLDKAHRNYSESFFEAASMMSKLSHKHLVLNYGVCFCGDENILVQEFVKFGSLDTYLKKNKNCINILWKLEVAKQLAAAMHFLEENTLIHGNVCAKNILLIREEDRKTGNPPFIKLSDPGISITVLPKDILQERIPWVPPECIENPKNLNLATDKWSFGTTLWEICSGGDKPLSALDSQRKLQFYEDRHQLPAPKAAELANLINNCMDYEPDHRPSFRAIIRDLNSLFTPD

Structure (SMILES)	IC50 [1]	h-IntCL [2]
COc1ccc(-c2c(-c3cn(C)nc3OC)[nH]c3ncc4c(c23)n([C@H]2CC[C@@](C)(NC(=O)C3CC3)CC2)c(=O)n4C)cc1 [Example 1, N-((1s,4s)-4-(7-(3-Methoxy-1-methyl-1H-pyrazol-4-yl)-8-(4-methoxyphenyl)-3-methyl-2-oxo-3,6-dihydroimidazo[4,5-d]pyrrolo[2,3-b]pyridin-1(2H)-yl)-1-methylcyclohexyl)cyclopropanecarboxamide]	≤ 10 nM	‡ (‡ refers to h-IntCL of <0.7 L/h/kg)
[2H]C([2H])([2H])n1ncc2cc(-c3c(-c4cn(C)nc4OC)[nH]c4ncc5c(c34)n([C@H]3CC[C@@](C)(NC(=O)C4CC4)CC3)c(=O)n5C)ccc21 [Example 2, N-((1s,4s)-4-(7-(3-Methoxy-1-methyl-1H-pyrazol-4-yl)-3-methyl-8-(1-(methyl-d3)-1H-indazol-5-yl)-2-oxo-3,6-dihydroimidazo[4,5-d]pyrrolo[2,3-b]pyridin-1(2H)-yl)-1-methylcyclohexyl)cyclopropanecarboxamide]	≤ 10 nM	‡ (‡ refers to h-IntCL of <0.7 L/h/kg)
[2H]C([2H])([2H])n1cc(-c2[nH]c3ncc4c(c3c2-c2ccc(OC)cc2)n([C@H]2CC[C@@](C)(NC(=O)C3CC3)CC2)c(=O)n4C)c(F)n1 [Example 3, N-((1s,4s)-4-(7-(3-fluoro-1-(methyl-d3)-1H-pyrazol-4-yl)-8-(4-methoxyphenyl)-3-methyl-2-oxo-3,6-dihydroimidazo[4,5-d]pyrrolo[2,3-b]pyridin-1(2H)-yl)-1-methylcyclohexyl)cyclopropanecarboxamide]	≤ 10 nM	‡ ‡ (‡ ‡ refers to h-IntCL of ≥0.7 L/h/kg to ≤1 L/h/kg)
[2H]C([2H])([2H])n1cc(-c2[nH]c3ncc4c(c3c2-c2ccc3c(cnn3C([2H])([2H])[2H])c2)n([C@H]2CC[C@@](C)(NC(=O)C3CC3)CC2)c(=O)n4C)c(F)n1 [Example 4, N-((1s,4s)-4-(7-(3-fluoro-1-(methyl-d3)-1H-pyrazol-4-yl)-3-methyl-8-(1-(methyl-d3)-1H-indazol-5-yl)-2-oxo-3,6-dihydroimidazo[4,5-d]pyrrolo[2,3-b]pyridin-1(2H)-yl)-1-methylcyclohexyl)cyclopropanecarboxamide]	≤ 10 nM	‡ (‡ refers to h-IntCL of <0.7 L/h/kg)
[2H]C([2H])([2H])n1ncc2cc(-c3c(-c4cn(CC)nc4F)[nH]c4ncc5c(c34)n([C@H]3CC[C@@](C)(NC(=O)C4CC4)CC3)c(=O)n5C)ccc21 [Example 5, N-((1s,4s)-4-(7-(1-Ethyl-3-fluoro-1H-pyrazol-4-yl)-3-methyl-8-(1-(methyl-d3)-1H-indazol-5-yl)-2-oxo-3,6-dihydroimidazo[4,5-d]pyrrolo[2,3-b]pyridin-1(2H)-yl)-1-methylcyclohexyl)cyclopropanecarboxamide]	≤ 10 nM	‡ (‡ refers to h-IntCL of <0.7 L/h/kg)
[2H]C([2H])([2H])n1cc(-c2[nH]c3ncc4c(c3c2-c2ccc(OC)cc2)n([C@H]2CC[C@@](C)(NC(=O)[C@H]3C[C@H]3F)CC2)c(=O)n4C([2H])([2H])[2H])c(F)n1 [Example 6, (1R,2R)-2-Fluoro-N-((1s,4S)-4-(7-(3-fluoro-1-(methyl-d3)-1H-pyrazol-4-yl)-8-(4-methoxyphenyl)-3-(methyl-d3)-2-oxo-3,6-dihydroimidazo[4,5-d]pyrrolo[2,3-b]pyridin-1(2H)-yl)-1-methylcyclohexyl)cyclopropane-1-carboxamide]	≤ 10 nM	‡ (‡ refers to h-IntCL of <0.7 L/h/kg)
